We go through 13 compounds from patent US20230099344A1, “COMPOUNDS AND METHODS FOR THE TARGETED DEGRADATION OF IRAK-4” (Arvinas Operations, Inc., priority 2021, published 2023).

Holding throughout (assay type): cell-based
For assay [1], the target named is T1, IRAK-4 (Homo sapiens, UniProt Q9NWZ3).
T1 sequence (Q9NWZ3 1-460): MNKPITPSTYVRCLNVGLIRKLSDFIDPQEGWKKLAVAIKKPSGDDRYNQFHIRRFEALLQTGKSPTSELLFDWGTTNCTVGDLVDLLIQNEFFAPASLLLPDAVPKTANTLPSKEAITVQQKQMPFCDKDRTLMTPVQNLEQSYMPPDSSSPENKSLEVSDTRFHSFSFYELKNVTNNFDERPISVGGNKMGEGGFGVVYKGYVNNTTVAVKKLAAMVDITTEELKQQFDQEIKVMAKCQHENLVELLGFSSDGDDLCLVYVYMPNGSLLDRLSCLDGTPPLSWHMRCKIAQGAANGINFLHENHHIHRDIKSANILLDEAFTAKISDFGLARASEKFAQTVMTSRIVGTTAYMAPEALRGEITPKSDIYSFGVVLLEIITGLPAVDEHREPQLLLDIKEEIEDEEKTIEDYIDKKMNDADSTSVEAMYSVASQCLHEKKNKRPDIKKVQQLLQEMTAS
Nature of the assay: IRAK-4 ELISA, OCI-Ly10 degradation. Set-up: endogenous in cells. To be noted: treated overnight; for Dmax: OCI-Ly10, OCI-Ly10 cells; for DC50: OCI-Ly10 cells. The method in brief:
(§1)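 Steps: seed cells (OCI-Ly10 1×10^6/ml; PBMC 2×10^6/ml); add compound the same day; incubate overnight; lyse; quantify IRAK-4 by matched-pair ELISA.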
A general note: ELISA stands for enzyme-linked immunosorbent assay.

Assay [2] has as its system IL6. Description: LPS stimulated IL6 inhibition assay in PBMC. Particulars: Homo sapiens, PBMC, 24 h, human PBMCs, LPS stimulation, compound overnight, IL6 by MSD after 24 hrs; for Dmax: read-out: LPS Stim IL6 inhibition Dmax; for IC50: read-out: LPS stim IL6 inhibition IC50. Summed up:
(§2)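 Seed human PBMC, 2.0×10^6 cells/mL → compound overnight → stimulant (IL-1β, LPS or R848) at per-donor EC50 → 24 hrs → media to MSD for IL6/IL8.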

Assay [3] concerns the target T1, IRAK-4. Description: IRAK-4 ELISA, PBMC degradation. Set-up: endogenous in cells; host or cells: PBMC. To be noted: treated overnight. The method in brief: as §1
The subject of assay [4] is IL6. Description: R848 stimulated IL6 inhibition assay in PBMC. To be noted: PBMC, human PBMCs, R848 stimulation, compound overnight, IL6 by MSD after 24 hrs; for Dmax: Homo sapiens, 24 h, read-out: R848 stim IL6 inhibition Dmax; for IC50: read-out: R848 stim IL6 inhibition IC50. The method in brief:
as §2

Assay [5] concerns IL8. Description: IL-1β stimulated IL8 inhibition assay in PBMC. Particulars: human PBMCs, IL-1β stimulation, compound overnight, IL8 by MSD after 24 hrs; for IC50: read-out: IL1β stim IL8 inhibition IC50; for Emax: read-out: IL1β stim IL8 inhibition Ymax. Summed up:
as §2

Assay [6] relates to IL6. Description: IL-1β stimulated IL6 inhibition assay in PBMC. To be noted: PBMC, human PBMCs, IL-1β stimulation, compound overnight, IL6 by MSD after 24 hrs; for IC50: Homo sapiens, 24 h, read-out: IL1β stim IL6 inhibition IC50; for Emax: read-out: IL1β stim IL6 inhibition Ymax. The method in brief:
as §2

A value given as a limit tells only on which side of the number the result lay.

Usually DC50 stands for the concentration at which degradation of the target reaches its halfway point. A lower DC50 goes with a more potent degrader. As usually defined, the IC50 is the concentration that inhibits the measured activity by half. With `CC(C)Oc1cc2c(cc1NC(=O)c1cnn3cccnc13)CN(C1CCN(CC3CCN(c4ccc5c(c4)C(=O)N(C4CCC(=O)NC4=O)C5=O)CC3)CC1)C2=O` (stereo not shown) [Example 1, N-(2-(1-((1-(2-(2,6-dioxopiperidin-3-yl)-1,3-dioxoisoindolin-5-yl)piperidin-4-yl)methyl)piperidin-4-yl)-6-isopropoxy-1-oxoisoindolin-5-yl)pyrazolo[1,5-a]pyrimidine-3-carboxamide], the Dmax in assay [1] was at least 90%; in assay [2], 80 to 90%; in assay [3] it was at least 90%; in assay [4], at least 90%. In addition, the figures for the DC50 in assay [1] and in assay [3] were below 10 nM and below 1 nM, respectively. In addition, the IC50 in assay [2] is below 10 nM; in assay [4] it was below 10 nM; in assay [5], 10 to 50 nM; in assay [6], below 10 nM. The “PBMC DC90” value in assay [3] worked out at 1 nM. For the same compound, the Emax is 70 to 80% in assay [5] and at least 90% in assay [6].
As for `COc1cc(N2CCC(CN3CCC(N4Cc5cc(NC(=O)c6cnn7cccnc67)c(OC(C)C)cc5C4=O)CC3)CC2)cc2c1C(=O)N(C1CCC(=O)NC1=O)C2` (stereo not shown) [Example 23], the Dmax in assay [1] is 80 to 90%; in assay [2], 70 to 80%; in assay [3], at least 90%; in assay [4] it was at least 90%. Also, the DC50 is below 10 nM in assay [1] and below 1 nM in assay [3]. The IC50 in assay [2] was 10 to 50 nM; in assay [4] it was 10 to 50 nM; in assay [5] it was 10 to 50 nM; in assay [6] it was below 10 nM. Besides, in assay [3], the “PBMC DC90” value is reported as “A (A represents a DC90 value <10.0 nM)”. Besides, the Emax in assay [5] was 80 to 90%; in assay [6] it was at least 90%.
In assay [1], `O=C1CCC(N2Cc3cc(N4CC(F)(CN5CCC(n6cc7cc(NC(=O)c8cnn9cccnc89)c(OCC8CC8)cc7n6)CC5)C4)ccc3C2=O)C(=O)N1` (stereo not shown) [Example 279] came in with a Dmax of 70 to 80% and a DC50 below 10 nM. Further, in assay [3], the DC50 is below 1 nM, the Dmax was at least 90% and the “PBMC DC90” value is “A (A represents a DC90 value <10.0 nM)”. In assay [5], the IC50 was at least 100 nM and the Emax is 80 to 90%. In assay [6], the IC50 fell in the range of 10 to 50 nM and the Emax is at least 90%.
In assay [1], `CC(C)Oc1cc2c(cc1NC(=O)c1cnn3cccnc13)CN(C1CCN(C3CCN(c4ccc5c(c4)CN(C4CCC(=O)NC4=O)C5=O)CC3)CC1)C2=O` (stereo not shown) [Example 282] had a Dmax of at least 90% and a DC50 below 10 nM. Further, in assay [3], the DC50 was below 1 nM, the Dmax was at least 90% and the “PBMC DC90” value is “A (A represents a DC90 value <10.0 nM)”. In assay [5], the IC50 was in the range of 10 to 50 nM and the Emax is below 70%. In addition, in assay [6], the IC50 was below 10 nM and the Emax was at least 90%.
For the compound `COc1c(N2CC(CN3CCC(n4cc5cc(NC(=O)c6cnn7cccnc67)c(OCC6CC6)cc5n4)CC3)C2)ccc2c1C(=O)N(C1CCC(=O)NC1=O)C2=O` (stereo not shown) [Example 285, N-(6-(cyclopropylmethoxy)-2-(1-((1-(2-(2,6-dioxopiperidin-3-yl)-4-methoxy-1,3-dioxoisoindolin-5-yl)azetidin-3-yl)methyl)piperidin-4-yl)-2H-indazol-5-yl)pyrazolo[1,5-a]pyrimidine-3-carboxamide], in assay [1], the Dmax is at least 90% and the DC50 is below 10 nM. Moreover, in assay [3], the DC50 fell in the range of 1 to 5 nM, the Dmax is 80 to 90% and the “PBMC DC90” value was “A (A represents a DC90 value <10.0 nM)”. Further, in assay [5], the IC50 lay in the range of 10 to 50 nM and the Emax was below 70%. Further, in assay [6], the IC50 is below 10 nM and the Emax lay in the range of 80 to 90%.
In assay [1], `O=C1CCC(NC(=O)c2ccc(N3CC(CN4CCC(n5cc6cc(NC(=O)c7cnn8cccnc78)c(OCC7CC7)cc6n5)CC4)C3)cc2F)C(=O)N1` (stereo not shown) [Example 287] registered a Dmax of at least 90% and a DC50 below 10 nM. In assay [3], the DC50 is 1 to 5 nM; the Dmax was at least 90%; the “PBMC DC90” value was “B (B represents a DC90 value ≥10.0 nM and <25.0 nM)”. Also, in assay [5], the IC50 was at least 100 nM and the Emax was below 70%. In assay [6], the IC50 was in the range of 50 to 100 nM and the Emax was at least 90%.
With `O=C1CCC(NC(=O)c2ccc(N3CCC(CN4CCC(n5cc6cc(NC(=O)c7cnn8cccnc78)c(OCC7CC7)cc6n5)CC4)CC3)cc2F)C(=O)N1` (stereo not shown) [Example 288], in assay [1], the Dmax was at least 90% and the DC50 is below 10 nM. Besides, in assay [3], the DC50 was below 1 nM, the Dmax is at least 90% and the “PBMC DC90” value is on record as “A (A represents a DC90 value <10.0 nM)”. In assay [5], the IC50 is 50 to 100 nM and the Emax lay in the range of 70 to 80%. Further, in assay [6], the half-inhibitory concentration (IC50) is 10 to 50 nM and the Emax was at least 90%.
In assay [1], `COc1cc2nn([C@H]3CC[C@H](N(C)C4CN(c5ccc6c(c5)C(=O)N(C5CCC(=O)NC5=O)C6=O)C4)CC3)cc2cc1NC(=O)c1cnn2cccnc12` (stereo partly shown) [Example 334] gave a Dmax of at least 90% and a DC50 below 10 nM. Also, in assay [3], the DC50 was below 1 nM, the Dmax was at least 90% and the “PBMC DC90” value is listed as “A (A represents a DC90 value <10.0 nM)”. For the same compound, in assay [5], the IC50 was 10 to 50 nM and the Emax was below 70%. Moreover, in assay [6], the IC50 is below 10 nM and the Emax is at least 90%.
Regarding `COc1cc2nn([C@H]3CC[C@H](N(C)C4CCN(c5ccc6c(c5)C(=O)N(C5CCC(=O)NC5=O)C6=O)CC4)CC3)cc2cc1NC(=O)c1cnn2cccnc12` (stereo partly shown) [Example 335], in assay [1], the Dmax is at least 90% and the DC50 is below 10 nM. In assay [3], the DC50 was below 1 nM, the Dmax was at least 90% and the “PBMC DC90” value is “A (A represents a DC90 value <10.0 nM)”. Also, the IC50 in assay [5] is at least 100 nM. In addition, in assay [6], the IC50 was below 10 nM and the Emax was at least 90%.
As to `COc1cc2nn([C@H]3CC[C@H](N(C)C4CN(c5ccc6c(c5)CN(C5CCC(=O)NC5=O)C6=O)C4)CC3)cc2cc1NC(=O)c1cnn2cccnc12` (stereo partly shown) [Example 337], in assay [1], the Dmax was at least 90% and the DC50 was below 10 nM. Further, in assay [3], the DC50 was in the range of 1 to 5 nM, the Dmax was at least 90% and the “PBMC DC90” value is “A (A represents a DC90 value <10.0 nM)”. Besides, in assay [5], the IC50 was below 10 nM and the Emax is below 70%. Besides, in assay [6], the IC50 is below 10 nM and the Emax was at least 90%.
Turning to `COc1cc2nn([C@H]3CC[C@H](N(C)CC#Cc4ccc5c(c4)C(=O)N(C4CCC(=O)NC4=O)C5=O)CC3)cc2cc1NC(=O)c1cnn2cccnc12` (stereo partly shown) [Example 338], in assay [1], the Dmax was at least 90% and the DC50 is below 10 nM. In addition, in assay [3], the DC50 was below 1 nM, the Dmax is at least 90% and the “PBMC DC90” value was “A (A represents a DC90 value <10.0 nM)”. In assay [5], the IC50 is 10 to 50 nM and the Emax is below 70%. Besides, in assay [6], the IC50 is below 10 nM and the Emax was at least 90%.
On to `CN(C1CN(c2ccc3c(c2)CN(C2CCC(=O)NC2=O)C3=O)C1)[C@H]1CC[C@H](n2cc3cc(NC(=O)c4cnn5cccnc45)c(OCC4CC4)cc3n2)CC1` (stereo partly shown) [Example 339], for which, in assay [1], the Dmax was at least 90% and the DC50 is below 10 nM. In addition, in assay [3], the DC50 was below 1 nM, the Dmax was at least 90% and the “PBMC DC90” value was “A (A represents a DC90 value <10.0 nM)”. Also, in assay [5], the IC50 lay within 10 to 50 nM and the Emax lay in the range of 70 to 80%. For the same compound, in assay [6], the IC50 was below 10 nM and the Emax was at least 90%.
As to `COc1cc2nn(C3CCN(CC4CN(c5cccc6c5n(C)c(=O)n6C5CCC(=O)NC5=O)C4)CC3)cc2cc1NC(=O)c1cnn2cccnc12` (stereo not shown) [Example 379], in assay [1], the Dmax was at least 90% and the 50% degradation concentration (DC50) is below 10 nM. Further, in assay [3], the DC50 is below 1 nM, the Dmax was at least 90% and the “PBMC DC90” value was “A (A represents a DC90 value <10.0 nM)”. In addition, in assay [5], the IC50 lay within 10 to 50 nM and the Emax was 70 to 80%. Moreover, in assay [6], the IC50 was below 10 nM and the Emax was 80 to 90%.
